Format in all cases: biochemical
One experiment deals with T1, HDAC6 enzyme (Homo sapiens, UniProt Q9UBN7).
T1 construct: transducing full length HDAC1 and HDAC6 genes into Sf-9 insect cells; GST; purchased SignalChem; host or cells: Sf-9 insect cells
T1 sequence (Q9UBN7 1-1215): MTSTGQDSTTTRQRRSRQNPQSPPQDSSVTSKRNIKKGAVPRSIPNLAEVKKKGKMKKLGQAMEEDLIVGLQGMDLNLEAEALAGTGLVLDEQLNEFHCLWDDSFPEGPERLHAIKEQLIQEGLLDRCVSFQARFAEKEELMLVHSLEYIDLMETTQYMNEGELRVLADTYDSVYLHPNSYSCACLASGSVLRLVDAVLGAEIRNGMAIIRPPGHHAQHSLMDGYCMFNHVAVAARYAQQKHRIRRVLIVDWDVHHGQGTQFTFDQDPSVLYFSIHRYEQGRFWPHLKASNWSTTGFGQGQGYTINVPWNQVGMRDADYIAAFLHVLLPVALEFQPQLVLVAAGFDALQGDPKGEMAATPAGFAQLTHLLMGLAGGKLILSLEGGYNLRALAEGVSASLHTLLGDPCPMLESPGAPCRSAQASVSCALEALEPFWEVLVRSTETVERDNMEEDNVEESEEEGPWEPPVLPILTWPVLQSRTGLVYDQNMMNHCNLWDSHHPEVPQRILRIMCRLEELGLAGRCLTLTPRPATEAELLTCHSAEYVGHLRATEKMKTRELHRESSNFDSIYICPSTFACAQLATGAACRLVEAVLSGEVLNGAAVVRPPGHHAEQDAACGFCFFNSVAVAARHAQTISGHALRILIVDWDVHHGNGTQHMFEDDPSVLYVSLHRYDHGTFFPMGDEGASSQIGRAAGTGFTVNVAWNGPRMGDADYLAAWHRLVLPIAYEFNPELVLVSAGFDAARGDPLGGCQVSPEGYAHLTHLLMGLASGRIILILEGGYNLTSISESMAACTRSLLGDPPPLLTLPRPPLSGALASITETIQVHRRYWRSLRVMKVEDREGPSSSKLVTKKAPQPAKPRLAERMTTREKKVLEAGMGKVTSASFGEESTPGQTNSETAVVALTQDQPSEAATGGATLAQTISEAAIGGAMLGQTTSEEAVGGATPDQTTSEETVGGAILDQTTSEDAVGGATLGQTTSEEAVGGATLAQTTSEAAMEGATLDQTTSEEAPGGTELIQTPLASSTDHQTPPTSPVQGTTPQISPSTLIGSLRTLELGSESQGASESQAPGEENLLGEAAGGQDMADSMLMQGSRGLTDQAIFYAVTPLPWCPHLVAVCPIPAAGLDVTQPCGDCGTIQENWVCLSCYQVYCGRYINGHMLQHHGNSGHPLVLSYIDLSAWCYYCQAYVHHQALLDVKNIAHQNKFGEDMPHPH
In words: HDAC1/6 Enzyme Inhibitory Assay (HDAC-Glo I/II Assay kit), HDAC6. The note with it: 1 μM test compound, wells without enzyme = 100% inhibition; for inhibition at 1 µM: read-out: HDAC6 inhibitory rate (%) (1 μM). Summed up:
(§1)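 Enzyme source: full-length HDAC1/HDAC6, Sf-9, GST-purified. Assay buffer 24 mM Tris-HCl (pH 7.5), 1 mM MgCl2, 0.35 mM KCl, 135 mM NaCl. Compound–enzyme 60 min RT, then HDAC-Glo reagent 20 min RT, luminescence; inhibition relative to no-enzyme control.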

Another experiment has as its target T2, HDAC1 enzyme (Homo sapiens, UniProt Q13547).
T2 construct: transducing full length HDAC1 and HDAC6 genes into Sf-9 insect cells; GST; purchased SignalChem; host or cells: Sf-9 insect cells
In words: HDAC1/6 Enzyme Inhibitory Assay (HDAC-Glo I/II Assay kit), HDAC1. To be noted: 1 μM test compound, wells without enzyme = 100% inhibition; for inhibition at 1 µM: read-out: HDAC1 inhibitory rate (%) (1 μM). An outline of the steps:
as §1

Another experiment addresses T3, HDAC9 enzyme (Homo sapiens, UniProt Q9UKV0).
T3 construct: transducing full length HDAC9 gene into Sf-9 insect cells; made in house; host or cells: Sf-9 insect cells
Nature of the experiment: HDAC9 Enzyme Inhibitory Assay (HDAC-Glo class IIa). The note with it: 1 μM test compound, wells without enzyme = 100% inhibition; for inhibition at 1 µM: read-out: HDAC9 inhibitory rate (%) (1 μM). An outline of the steps:
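Full-length human HDAC9 from Sf-9 cells, Ni-NTA purified, preincubated with compound for 60 min at room temperature in Tris-HCl pH 7.5 buffer (MgCl2, KCl, NaCl, glutathione, Tween-20). HDAC-Glo class IIa substrate-developer added; luminescence read after 20 min, with no-enzyme wells defining 100% inhibition.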

Structures are written as SMILES.

T3 sequence (Q9UKV0 whole entry, species assumed): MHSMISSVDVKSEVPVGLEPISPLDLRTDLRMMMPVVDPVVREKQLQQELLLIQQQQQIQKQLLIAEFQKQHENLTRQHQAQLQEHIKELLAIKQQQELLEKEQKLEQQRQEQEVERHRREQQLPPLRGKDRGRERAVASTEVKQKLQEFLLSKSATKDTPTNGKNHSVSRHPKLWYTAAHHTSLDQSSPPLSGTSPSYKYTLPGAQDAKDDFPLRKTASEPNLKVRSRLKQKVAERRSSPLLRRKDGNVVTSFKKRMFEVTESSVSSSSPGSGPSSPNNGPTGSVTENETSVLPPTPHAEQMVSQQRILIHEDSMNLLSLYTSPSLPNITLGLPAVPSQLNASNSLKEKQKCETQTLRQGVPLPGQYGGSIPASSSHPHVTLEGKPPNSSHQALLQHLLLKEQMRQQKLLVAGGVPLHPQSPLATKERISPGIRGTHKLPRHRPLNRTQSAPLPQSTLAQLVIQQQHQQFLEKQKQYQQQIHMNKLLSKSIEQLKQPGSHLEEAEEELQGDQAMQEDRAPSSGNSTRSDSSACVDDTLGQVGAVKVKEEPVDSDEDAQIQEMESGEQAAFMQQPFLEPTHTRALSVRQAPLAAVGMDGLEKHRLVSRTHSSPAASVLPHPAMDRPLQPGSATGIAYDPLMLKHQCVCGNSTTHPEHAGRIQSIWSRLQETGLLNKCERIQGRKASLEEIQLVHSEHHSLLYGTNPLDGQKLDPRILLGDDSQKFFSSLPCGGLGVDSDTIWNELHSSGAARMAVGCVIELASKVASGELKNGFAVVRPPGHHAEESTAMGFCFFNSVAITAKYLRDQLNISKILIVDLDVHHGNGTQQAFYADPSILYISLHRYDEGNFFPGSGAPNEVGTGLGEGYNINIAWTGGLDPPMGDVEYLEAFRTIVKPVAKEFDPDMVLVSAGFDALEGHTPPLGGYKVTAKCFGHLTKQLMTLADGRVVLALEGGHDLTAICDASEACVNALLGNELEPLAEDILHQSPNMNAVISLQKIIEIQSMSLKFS
T2 sequence (Q13547 whole entry): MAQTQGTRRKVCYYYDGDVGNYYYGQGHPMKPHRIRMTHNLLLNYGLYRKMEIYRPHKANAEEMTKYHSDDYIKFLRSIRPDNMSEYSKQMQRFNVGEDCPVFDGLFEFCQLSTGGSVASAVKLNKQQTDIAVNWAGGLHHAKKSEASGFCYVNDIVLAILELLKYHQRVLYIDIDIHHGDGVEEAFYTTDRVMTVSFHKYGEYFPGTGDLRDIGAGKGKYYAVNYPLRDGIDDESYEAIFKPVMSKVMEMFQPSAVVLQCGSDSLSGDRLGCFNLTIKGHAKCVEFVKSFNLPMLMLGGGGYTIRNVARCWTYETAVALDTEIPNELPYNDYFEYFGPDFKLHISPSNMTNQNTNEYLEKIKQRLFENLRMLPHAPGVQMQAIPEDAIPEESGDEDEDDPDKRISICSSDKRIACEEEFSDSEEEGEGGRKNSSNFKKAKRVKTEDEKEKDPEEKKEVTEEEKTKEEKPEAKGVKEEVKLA

On to `O=C(N[C@@H]1CCOC[C@@H]1N1Cc2ccc(-c3noc(C(F)(F)F)n3)cc2C1=O)C1CC1(F)F` (single isomer, unassigned) [Example 211, (1R) or (1S)-2,2-difluoro-N-((3R,4R)-3-(1-oxo-6-(5-(trifluoromethyl)-1,2,4-oxadiazol-3-yl)-1,3-dihydro-2H-isoindol-2-yl)tetrahydro-2H-pyran-4-yl)cyclopropanecarboxamide], for which the “HDAC6 inhibitory rate (%) (1 μM)” value on HDAC6 enzyme stood at 43%. The “HDAC1 inhibitory rate (%) (1 μM)” value on HDAC1 enzyme is −1%. The “HDAC9 inhibitory rate (%) (1 μM)” value at HDAC9 enzyme is recorded as 33%.

For the compound `CC(C)(C#N)C(=O)N[C@@H]1CCCC[C@H]1N1Cc2ccc(-c3noc(C(F)(F)F)n3)cc2C1=O` [Example 100, 2-cyano-2-methyl-N-((1R,2R)-2-(1-oxo-6-(5-(trifluoromethyl)-1,2,4-oxadiazol-3-yl)-1,3-dihydro-2H-isoindol-2-yl)cyclohexyl)propanamide], the inhibition at 1 µM at HDAC6 enzyme stood at 100%; at HDAC1 enzyme it was 9%; at HDAC9 enzyme it was 73%.

Consider `CC1(C(=O)N[C@@H]2CCCC[C@H]2N2Cc3ccc(-c4noc(C(F)(F)F)n4)cc3C2=O)CC1` [Example 36, 1-methyl-N-((1R,2R)-2-(1-oxo-6-(5-(trifluoromethyl)-1,2,4-oxadiazol-3-yl)-1,3-dihydro-2H-isoindol-2-yl)cyclohexyl) cyclopropanecarboxamide], for which the results for the inhibition at 1 µM at HDAC6 enzyme, at HDAC1 enzyme and on HDAC9 enzyme were 98%, 12% and 66%, respectively.

On to `CC(=O)N[C@@H]1CCCC[C@H]1N1Cc2ccc(-c3noc(C(F)(F)F)n3)cc2C1=O` (relative stereo) [Example 8, trans-N-(2-(1-oxo-6-(5-(trifluoromethyl)-1,2,4-oxadiazol-3-yl)-1,3-dihydro-2H-isoindol-2-yl)cyclohexyl)acetamide], for which the inhibition at 1 µM on HDAC6 enzyme was 98%; at HDAC1 enzyme it was 10%; on HDAC9 enzyme, 43%.

On to `CN1CCC(C(=O)N[C@@H]2CCCC[C@H]2N2Cc3ccc(-c4noc(C(F)(F)F)n4)cc3C2=O)CC1` [Example 123, 1-methyl-N-((1R,2R)-2-(1-oxo-6-(5-(trifluoromethyl)-1,2,4-oxadiazol-3-yl)-1,3-dihydro-2H-isoindol-2-yl)cyclohexyl)piperidine-4-carboxamide], for which the inhibition at 1 µM on HDAC6 enzyme is 56%; on HDAC1 enzyme, -4%; on HDAC9 enzyme, 5%.

For the compound `CN1CC(C)(C(=O)N[C@@H]2CCCC[C@H]2N2Cc3ccc(-c4noc(C(F)(F)F)n4)cc3C2=O)C1` [Example 196, 1,3-dimethyl-N-((1R,2R)-2-(1-oxo-6-(5-(trifluoromethyl)-1,2,4-oxadiazol-3-yl)-1,3-dihydro-2H-isoindol-2-yl)cyclohexyl)azetidine-3-carboxamide], the figures for the inhibition at 1 µM at HDAC6 enzyme, at HDAC1 enzyme and on HDAC9 enzyme were 101%, 4% and 22%, respectively.

With `N#Cc1ccccc1C(=O)N[C@@H]1CCCC[C@H]1N1Cc2ccc(-c3noc(C(F)(F)F)n3)cc2C1=O` [Example 106, 2-cyano-N-((1R,2R)-2-(1-oxo-6-(5-(trifluoromethyl)-1,2,4-oxadiazol-3-yl)-1,3-dihydro-2H-isoindol-2-yl)cyclohexyl)benzamide], the results for the inhibition at 1 µM at HDAC6 enzyme, on HDAC1 enzyme and at HDAC9 enzyme were 101%, 58% and 88%, respectively.

As to `O=C1CC[C@@H](C(=O)N[C@@H]2CCCC[C@H]2N2Cc3ccc(-c4noc(C(F)(F)F)n4)cc3C2=O)N1` [Example 128, 5-oxo-N-((1R,2R)-2-(1-oxo-6-(5-(trifluoromethyl)-1,2,4-oxadiazol-3-yl)-1,3-dihydro-2H-isoindol-2-yl)cyclohexyl)-L-prolinamide], the inhibition at 1 µM on HDAC6 enzyme is 92%; at HDAC1 enzyme it was -3%; at HDAC9 enzyme, 39%.

As to `O=C(N[C@@H]1CCCC[C@H]1N1Cc2ccc(-c3noc(C(F)(F)F)n3)cc2C1=O)c1ccccc1` (relative stereo) [Example 9, trans-N-(2-(1-oxo-6-(5-(trifluoromethyl)-1,2,4-oxadiazol-3-yl)-1,3-dihydro-2H-isoindol-2-yl)cyclohexyl)benzamide], the inhibition at 1 µM at HDAC6 enzyme is 97%; at HDAC1 enzyme, 54%; at HDAC9 enzyme, 89%.

Consider `O=C(N[C@@H]1CCOC[C@@H]1N1Cc2ccc(-c3noc(C(F)(F)F)n3)cc2C1=O)C1CC1(F)F` (single isomer, unassigned) [Example 212, (1R) or (1S)-2,2-difluoro-N-((3R,4R)-3-(1-oxo-6-(5-(trifluoromethyl)-1,2,4-oxadiazol-3-yl)-1,3-dihydro-2H-isoindol-2-yl)tetrahydro-2H-pyran-4-yl)cyclopropanecarboxamide], for which, at HDAC6 enzyme, the “HDAC6 inhibitory rate (%) (1 μM)” value was 82%. The “HDAC1 inhibitory rate (%) (1 μM)” value at HDAC1 enzyme is 12%. The “HDAC9 inhibitory rate (%) (1 μM)” value at HDAC9 enzyme is reported as 58%.

In the case of `O=C(Cc1ccc(F)cc1)N1CCC(N2Cc3ncc(-c4noc(C(F)(F)F)n4)cc3C2=O)CC1` [Example 68, 6-(1-((4-fluorophenyl)acetyl)piperidin-4-yl)-3-(5-(trifluoromethyl)-1,2,4-oxadiazol-3-yl)-6,7-dihydro-5H-pyrrolo[3,4-b]pyridin-5-one], the values for the inhibition at 1 µM on HDAC6 enzyme, on HDAC1 enzyme and on HDAC9 enzyme were 90%, 35% and 90%, respectively.

As for `O=C1CCCN1c1cccc(Cl)c1N1Cc2ccc(-c3noc(C(F)(F)F)n3)cc2C1=O` [Example 185, 2-(2-chloro-6-(2-oxopyrrolidin-1-yl)phenyl)-6-(5-(trifluoromethyl)-1,2,4-oxadiazol-3-yl)isoindolin-1-one], the figures for the inhibition at 1 µM on HDAC6 enzyme, at HDAC1 enzyme and on HDAC9 enzyme were 97%, 5% and 41%, respectively.

As for `CC(C)(C)OC(=O)N[C@H]1CCCC[C@@H]1N1Cc2ccc(-c3noc(C(F)(F)F)n3)cc2C1=O` [Example 27, tert-butyl ((1S,2S)-2-(1-oxo-6-(5-(trifluoromethyl)-1,2,4-oxadiazol-3-yl)-1,3-dihydro-2H-isoindol-2-yl)cyclohexyl)carbamate], the values for the inhibition at 1 µM on HDAC6 enzyme, on HDAC1 enzyme and at HDAC9 enzyme were 36%, 16% and 76%, respectively.

For `O=C1NCCC1C(=O)N[C@@H]1CCCC[C@H]1N1Cc2ccc(-c3noc(C(F)(F)F)n3)cc2C1=O` (stereo partly drawn) [Example 108, 2-oxo-N-((1Rr2R)-2-(1-oxo-6-(5-(trifluoromethyl)-l ,2,4-oxadiazol-3-yl)-1,3-dihydro-2H-isoindol-2-yl)cyclohexyl)pyrrolidine-3-carboxamide], the inhibition at 1 µM at HDAC6 enzyme was 97%; on HDAC1 enzyme, 2%; on HDAC9 enzyme, 35%.

`O=C(N[C@@H]1CCCC[C@H]1N1Cc2ccc(-c3noc(C(F)(F)F)n3)cc2C1=O)C1CCCCCO1` (stereo partly drawn) [Example 119, N-((1R,2R)-2-(1-oxo-6-(5-(trifluoromethyl)-1,2,4-oxadiazol-3-yl)-1,3-dihydro-2H-isoindol-2-yl)cyclohexyl)oxepane-2-carboxamide]: the inhibition at 1 µM at HDAC6 enzyme came out at 100%; at HDAC9 enzyme, 38%. For the same compound, the “HDAC1 inhibitory rate (%) (1 μM)” value on HDAC1 enzyme turned out to be 4%.

Values taken from patent publication US10308643B2, “Heterocyclic compound” (Takeda Pharmaceutical Company Limited, priority 2015, dated 2019).
